pEC50: −log10 of the molar value. Where a name gives a salt, the structure may show the parent alone.
Columns and labels:
[1] = biological target: T1, delF508-CFTR (Homo sapiens, UniProt P13569, DEL508-508); experiment: Measurement of delF508-CFTR functional activity in primary human bronchial epithelial cells (HBECs) using Multi-Transepithelial Clamp Circuit (MTECC-24) assay; format: cell-based; details: primary CF HBECs; for MTECC24 CFHBEC- Amax %: test compound added 24h before assay plus potentiator, relative to reference combination (2 μM corrector + 0.5 μM potentiator); for pEC50: test compound added 24h before assay, in the presence of potentiator, mean of at least two replicates, read-out: MTECC24 CFHBEC- EC50
T1 construct: functional activity of the CFTR channel (Chloride ion transport) in patient derived primary human bronchial epithelial cells; host or cells: patient-derived primary human bronchial epithelial cells (delF508-CFTR)
T1 sequence (P13569 with tags, fused parts or gaps DEL508-508): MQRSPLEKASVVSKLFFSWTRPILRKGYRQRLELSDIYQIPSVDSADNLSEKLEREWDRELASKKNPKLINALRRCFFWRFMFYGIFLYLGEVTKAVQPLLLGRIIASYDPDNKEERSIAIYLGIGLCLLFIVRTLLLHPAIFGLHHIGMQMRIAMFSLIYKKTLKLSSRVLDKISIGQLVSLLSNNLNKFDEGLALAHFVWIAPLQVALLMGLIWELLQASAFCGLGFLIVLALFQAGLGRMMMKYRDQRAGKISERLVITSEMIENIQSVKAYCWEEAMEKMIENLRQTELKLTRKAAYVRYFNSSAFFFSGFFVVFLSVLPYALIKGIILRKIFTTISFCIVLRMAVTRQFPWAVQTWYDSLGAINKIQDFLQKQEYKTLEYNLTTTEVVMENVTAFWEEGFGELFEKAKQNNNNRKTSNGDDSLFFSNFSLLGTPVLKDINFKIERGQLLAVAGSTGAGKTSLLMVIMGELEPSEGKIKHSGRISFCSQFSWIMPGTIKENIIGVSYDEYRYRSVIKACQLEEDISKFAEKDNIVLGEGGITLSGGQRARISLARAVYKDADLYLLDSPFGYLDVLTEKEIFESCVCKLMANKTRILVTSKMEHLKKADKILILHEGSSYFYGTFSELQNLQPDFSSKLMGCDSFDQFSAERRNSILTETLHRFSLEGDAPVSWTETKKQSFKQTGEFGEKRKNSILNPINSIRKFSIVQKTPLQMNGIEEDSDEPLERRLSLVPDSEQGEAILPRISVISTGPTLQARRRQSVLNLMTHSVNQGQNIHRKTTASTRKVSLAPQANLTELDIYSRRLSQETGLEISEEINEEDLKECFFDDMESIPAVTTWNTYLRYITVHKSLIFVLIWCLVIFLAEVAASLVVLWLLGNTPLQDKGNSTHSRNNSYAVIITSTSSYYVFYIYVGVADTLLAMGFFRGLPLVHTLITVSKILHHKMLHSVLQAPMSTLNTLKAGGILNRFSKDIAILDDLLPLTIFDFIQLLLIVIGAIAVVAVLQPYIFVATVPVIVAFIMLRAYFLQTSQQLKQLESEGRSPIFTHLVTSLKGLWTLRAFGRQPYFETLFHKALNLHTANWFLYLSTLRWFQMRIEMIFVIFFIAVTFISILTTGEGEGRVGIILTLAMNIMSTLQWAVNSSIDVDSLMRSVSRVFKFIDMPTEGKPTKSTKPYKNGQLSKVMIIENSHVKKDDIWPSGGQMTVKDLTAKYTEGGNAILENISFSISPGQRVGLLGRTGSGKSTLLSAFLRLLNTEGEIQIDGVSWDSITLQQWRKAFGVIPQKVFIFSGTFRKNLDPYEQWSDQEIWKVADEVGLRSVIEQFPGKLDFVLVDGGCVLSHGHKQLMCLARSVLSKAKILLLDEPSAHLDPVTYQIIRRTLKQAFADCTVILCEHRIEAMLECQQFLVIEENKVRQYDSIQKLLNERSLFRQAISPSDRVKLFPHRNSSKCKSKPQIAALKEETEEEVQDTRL
Summary of the method: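 Patient-derived primary delF508-CFTR HBECs, differentiated at air-liquid interface ~2 weeks, treated basolaterally with compound for 24 h, then apical and basolateral compound in HEPES pH 7.4 assay medium. Equivalent short-circuit current (Ieq) recorded on MTECC-24 with sequential amiloride, forskolin, potentiator and INH-172; normalized to 0.1% DMSO, EC50 from curve fit.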

[2] = biological target: T2, horseradish peroxidase (HRP) tagged delF508-CFTR (Homo sapiens, UniProt P13569, DEL508-508); experiment: Measurement of delF508-CFTR-HRP surface expression in CFBE41o- cells; format: cell-based; details: delF508-CFTR-HRP surface expression, CFBE41o- cells; for Emax: read-out: DelF508-CFTR-HRP Amax %; for pEC50: read-out: DelF508-CFTR-HRP EC50;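 for DelF508-CFTR-HRP Amax %: percent efficacy relative to reference corrector lumacaftor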
T2 construct: expressed in transfected cells
T2 sequence (P13569 with tags, fused parts or gaps DEL508-508): as above
Summary of the method: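 CFBE41o- bronchial epithelial cells stably expressing delF508-CFTR with HRP in the fourth extracellular loop; expression induced 48h with 500 ng/mL doxycycline, then compounds added (top 10 μM, 10-point 3-fold series, ≤0.5% DMSO) for 24h at 37° C. Surface HRP measured by luminescence with cell-impermeant substrate; EC50 from logistic fit of triplicates, plate-normalized to lowest concentration; efficacy also relative to a reference corrector.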

Cc1ccc(F)cc1-c1nc(NS(=O)(=O)c2cccc(N3CC(C)(O)C3)n2)ccc1C(F)(F)F [Example 219, N-(6-(5-fluoro-2-methylphenyl)-5-(trifluoromethyl)pyridin-2-yl)-6-(3-hydroxy-3-methylazetidin-1-yl)pyridine-2-sulfonamide]
MTECC24 CFHBEC- Amax % [1]: 119.0% | pEC50 [1]: 7.95 | Emax [2]: 711% | pEC50 [2]: 5.80

Cc1ccccc1-c1nc(NS(=O)(=O)c2cccc(N3CCC(C)(C(=O)O)CC3)n2)ccc1C(F)(F)F [Example 264, 4-methyl-1-(6-(N-(6-(o-tolyl)-5-(trifluoromethyl)pyridin-2-yl)sulfamoyl)pyridin-2-yl)piperidine-4-carboxylic Acid]
MTECC24 CFHBEC- Amax % [1]: 67.2% | pEC50 [1]: 7.93 | Emax [2]: 448% | pEC50 [2]: 5.58

Cc1ccccc1-c1nc(NS(=O)(=O)c2cccc(N3CC[C@H](O)[C@H]3C)n2)ccc1C(F)(F)F [Example 314, 6-((2R,3S)-3-hydroxy-2-methylpyrrolidin-1-yl)-N-(6-(o-tolyl)-5-(trifluoromethyl)pyridin-2-yl)pyridine-2-sulfonamide]
MTECC24 CFHBEC- Amax % [1]: 96.4% | pEC50 [1]: 8.00 | pEC50 [2]: 5.80

Cc1ccccc1-c1nc(NS(=O)(=O)c2cccc(N3CCC(N)CC3)n2)ccc1C(F)(F)F [Example 108, 6-(4-aminopiperidin-1-yl)-N-(6-(o-tolyl)-5-(trifluoromethyl)pyridin-2-yl)pyridine-2-sulfonamide Hydrochloride]
MTECC24 CFHBEC- Amax % [1]: 61.4% | pEC50 [1]: 7.26 | Emax [2]: 336% | pEC50 [2]: 5.39

Cc1ccccc1-c1nc(NS(=O)(=O)c2cccc(N3CCC[C@H](N)C3)n2)ccc1C(F)(F)F [Example 103, (S)-6-(3-aminopiperidin-1-yl)-N-(6-(o-tolyl)-5-(trifluoromethyl)pyridin-2-yl)pyridine-2-sulfonamide Hydrochloride]
MTECC24 CFHBEC- Amax % [1]: 67.8% | pEC50 [1]: 7.02 | Emax [2]: 370% | pEC50 [2]: 5.53

CN[C@H]1CCN(c2cccc(S(=O)(=O)Nc3ccc(C(F)(F)F)c(-c4ccccc4C)n3)n2)C1 [Example 122, (S)-6-(3-(methylamino)pyrrolidin-1-yl)-N-(6-(o-tolyl)-5-(trifluoromethyl)pyridin-2-yl)pyridine-2-sulfonamide Hydrochloride]
MTECC24 CFHBEC- Amax % [1]: 81.8% | pEC50 [1]: 7.57 | Emax [2]: 385% | pEC50 [2]: 5.57

Cc1ccc(F)cc1-c1nc(NS(=O)(=O)c2cccc(N3CC4CCC3CN4)n2)ccc1C(F)(F)F (stereo not drawn) [Example 201, 6-(2,5-diazabicyclo[2.2.2]octan-2-yl)-N-(6-(5-fluoro-2-methylphenyl)-5-(trifluoromethyl)pyridin-2-yl)pyridine-2-sulfonamide Hydrochloride]
MTECC24 CFHBEC- Amax % [1]: 75.9% | pEC50 [1]: 6.87 | Emax [2]: 570% | pEC50 [2]: 5.58

Cc1ccccc1-c1nc(NS(=O)(=O)c2cccc(N3CCN[C@H](C)C3)n2)ccc1C(F)(F)F [Example 167, (R)-6-(3-methylpiperazin-1-yl)-N-(6-(o-tolyl)-5-(trifluoromethyl)pyridin-2-yl)pyridine-2-sulfonamide Hydrochloride]
MTECC24 CFHBEC- Amax % [1]: 67.6% | pEC50 [1]: 7.07 | Emax [2]: 317% | pEC50 [2]: 5.43

Cc1ccc(F)cc1-c1nc(NS(=O)(=O)c2cccc(N[C@@H]3COC[C@H]3O)n2)ccc1Cl [Example 127, N-(5-chloro-6-(5-fluoro-2-methylphenyl)pyridin-2-yl)-6-(((3R,4S)-4-hydroxytetrahydrofuran-3-yl)amino)pyridine-2-sulfonamide]
MTECC24 CFHBEC- Amax % [1]: 45.4% | pEC50 [1]: 7.80 | Emax [2]: 382% | pEC50 [2]: 5.63

Cc1ccccc1-c1nc(NS(=O)(=O)c2cccc(N3CC4(C3)OCCC4N)n2)ccc1C(F)(F)F (stereo not drawn) [Example 303, 6-(8-amino-5-oxa-2-azaspiro[3.4]octan-2-yl)-N-(6-(o-tolyl)-5-(trifluoromethyl)pyridin-2-yl)pyridine-2-sulfonamide]
MTECC24 CFHBEC- Amax % [1]: 65.5% | pEC50 [1]: 7.14 | Emax [2]: 491% | pEC50 [2]: 5.50

Cc1ccc(F)cc1-c1nc(NS(=O)(=O)c2cccc(N3CCN4C[C@@H](F)CC4[C@@H]3C)n2)ccc1Cl (stereo partly drawn) [Example 135, N-(5-chloro-6-(5-fluoro-2-methylphenyl)pyridin-2-yl)-6-((1S,7S)-7-fluoro-1-methylhexahydropyrrolo[1,2-a]pyrazin-2(1H)-yl)pyridine-2-sulfonamide]
MTECC24 CFHBEC- Amax % [1]: 95.3% | pEC50 [1]: 7.89 | Emax [2]: 804% | pEC50 [2]: 5.46

Cc1ccc(F)cc1-c1nc(NS(=O)(=O)c2ccnc(N3CCOC[C@H]3C)c2)ccc1Cl [Example 318, (R)—N-(5-chloro-6-(5-fluoro-2-methylphenyl)pyridin-2-yl)-2-(3-methylmorpholino)pyridine-4-sulfonamide]
MTECC24 CFHBEC- Amax % [1]: 48.7% | pEC50 [1]: 7.11 | Emax [2]: 318% | pEC50 [2]: 5.50

Cc1c(F)cccc1-c1nc(NS(=O)(=O)c2cccc(N3CCNCC3)n2)ccc1C(F)(F)F [Example 151, N-(6-(3-Fluoro-2-Methylphenyl)-5-(Trifluoromethyl)Pyridin-2-yl)-6-(Piperazin-1-yl)Pyridine-2-Sulfonamide Hydrochloride]
MTECC24 CFHBEC- Amax % [1]: 75.3% | pEC50 [1]: 7.02 | Emax [2]: 187% | pEC50 [2]: 5.43

Cc1cccc(C)c1-c1nc(NS(=O)(=O)c2cccc(N3CC(C)(O)C3)n2)ccc1Cl [Example 210, N-(5-chloro-6-(2,6-dimethylphenyl)pyridin-2-yl)-6-(3-hydroxy-3-methylazetidin-1-yl)pyridine-2-sulfonamide]
MTECC24 CFHBEC- Amax % [1]: 68.7% | pEC50 [1]: 8.66 | Emax [2]: 507% | pEC50 [2]: 6.15

Cc1ccccc1-c1nc(NS(=O)(=O)c2cccc(N3CCN(C4COC4)CC3)n2)ccc1C(F)(F)F [Example 187, 6-(4-(oxetan-3-yl)piperazin-1-yl)-N-(6-(o-tolyl)-5-(trifluoromethyl)pyridin-2-yl)pyridine-2-sulfonamide]
MTECC24 CFHBEC- Amax % [1]: 78.8% | pEC50 [1]: 7.04 | Emax [2]: 634% | pEC50 [2]: 5.59

Cc1ccc(C#N)cc1-c1nc(NS(=O)(=O)c2cccc(N3CCNCC3)n2)ccc1Cl [Example 312, N-(5-chloro-6-(5-cyano-2-methylphenyl)pyridin-2-yl)-6-(piperazin-1-yl)pyridine-2-sulfonamide]
MTECC24 CFHBEC- Amax % [1]: 49.8% | pEC50 [1]: 6.34 | Emax [2]: 167% | pEC50 [2]: 5.40

CC(C)(C)OC(=O)N1CCN(c2cccc(S(=O)(=O)Nc3ccc(C(F)(F)F)c(-c4ccccc4C4CC4)n3)n2)CC1 [Example 147, tert-butyl 4-(6-(N-(6-(2-cyclopropylphenyl)-5-(trifluoromethyl)pyridin-2-yl)sulfamoyl)pyridin-2-yl)piperazine-1-carboxylate]
MTECC24 CFHBEC- Amax % [1]: 92.8% | pEC50 [1]: 8.38 | Emax [2]: 482% | pEC50 [2]: 6.43

Cc1ccccc1-c1nc(NS(=O)(=O)c2cccc(N3CCC[C@@H](C(=O)O)C3)n2)ccc1C(F)(F)F [Example 332, (3R)-1-(6-{[6-(2-methylphenyl)-5-(trifluoromethyl)pyridin-2-yl]sulfamoyl}pyridin-2-yl)piperidine-3-carboxylic Acid]
MTECC24 CFHBEC- Amax % [1]: 84.0% | pEC50 [1]: 8.32 | Emax [2]: 521% | pEC50 [2]: 5.96

Cc1ccccc1-c1nc(NS(=O)(=O)c2cccc(N3CC(O)C3)n2)ccc1C(F)(F)F [Example 233, 6-(3-hydroxyazetidin-1-yl)-N-(6-(o-tolyl)-5-(trifluoromethyl)pyridin-2-yl)pyridine-2-sulfonamide]
MTECC24 CFHBEC- Amax % [1]: 85.3% | pEC50 [1]: 8.28 | Emax [2]: 586% | pEC50 [2]: 5.82

Cc1c(C#N)cccc1-c1nc(NS(=O)(=O)c2cccc(N3CC(C)(O)C3)n2)ccc1Cl [Example 309, N-(5-chloro-6-(3-cyano-2-methylphenyl)pyridin-2-yl)-6-(3-hydroxy-3-methylazetidin-1-yl)pyridine-2-sulfonamide]
MTECC24 CFHBEC- Amax % [1]: 75.6% | pEC50 [1]: 6.68 | Emax [2]: 194% | pEC50 [2]: 5.42

Cc1ccc(F)cc1-c1nc(NS(=O)(=O)c2cccc(N3CCNCC3)n2)ccc1C(F)(F)F [Example 152, N-(6-(5-Fluoro-2-Methylphenyl)-5-(Trifluoromethyl)Pyridin-2-yl)-6-(Piperazin-1-yl)Pyridine-2-Sulfonamide Hydrochloride]
MTECC24 CFHBEC- Amax % [1]: 62.5% | pEC50 [1]: 7.24 | Emax [2]: 332% | pEC50 [2]: 5.57

Cc1ccc(F)cc1-c1nc(NS(=O)(=O)c2cccc(N3C[C@@H](C)N[C@@H](C)C3)n2)ccc1C(F)(F)F [Example 178, 6-((3S,5R)-3,5-dimethylpiperazin-1-yl)-N-(6-(5-fluoro-2-methylphenyl)-5-(trifluoromethyl)pyridin-2-yl)pyridine-2-sulfonamide Hydrochloride]
MTECC24 CFHBEC- Amax % [1]: 66.3% | pEC50 [1]: 6.68 | Emax [2]: 231% | pEC50 [2]: 5.94

From patent publication US11066369B2, “N-(pyridin-2-yl)pyridine-sulfonamide derivatives and their use in the treatment of disease” (Novartis AG, priority 2016, dated 2021)
